From US6787132B1, “Combined chemo-immunotherapy with liposomal drugs and cytokines” (Yissum Research Development Company of the Hebrew …, priority 1997, dated 2004)

Experiments:
Format in all cases: in vivo, BALB/c mice
[1] = test system: M109 tumor cells (lung adenocarcinoma); test: Lung adenocarcinoma model: survival of mice injected intraperitoneally with M109 tumor cells, IL-2 in MLV; settings: 5×10^5 M109 cells i.p. day 0, ADR or DOXIL 8 mg/kg i.v. day 7, MLV-IL-2 50,000 CU/mouse i.p. days 10, 13, 16
Description: B1. Lung Adenocarcinoma Model: IL-2 in MLV. Six groups of BALB/c mice were injected intraperitoneally with 5×10^5 M109 tumor cells (day 0). Free adriamycin or DOXIL®, respectively, were administered intravenously on day 7 at a dose of 8 mg/kg, and intraperitoneal cytokine treatment was initiated 3 days later. Liposomal IL-2 (formulation B; MLV DMPC/DMPG (9:1 mole ratio) liposomes containing IL-2) was given once daily (50,000 CU/mouse) on days 10, 13 and 16. Control groups received no treatment or received the IL-2 treatment alone.
(§1) Each group, consisting of 8-9 mice, was inspected for survival up to 100 days after tumor inoculation.

[2] = test system: M109 tumor cells (lung adenocarcinoma); test: Metastatic lung adenocarcinoma model: survival of mice injected intravenously with M109 tumor cells, IL-2 in PEGylated SUV; settings: 5×10^5 M109 cells i.v. day 0, ADR or DOXIL 8 mg/kg i.v. day 7, SSL-IL-2 50,000 CU/mouse i.v. days 11, 14, 17
Description: B2. Metastatic Lung Adenocarcinoma Model: IL-2 in MLV (Formulation B) and PEG-Derivatized SUV (SSL). In this experiment, BALB/c mice were injected intravenously with 5×10^5 M109 tumor cells (day 0). Free adriamycin or DOXIL ®, respectively, were administered intravenously on day 7 (8 mg/kg), followed […] by intravenous cytokine treatment. Liposomal IL-2 (Formulation A; PEGylated SUV containing IL-2) was given once daily (50,000 CU/mouse) on days 11, 14 and 17. Control groups received no treatment or received the IL-2 treatment alone.
as §1

M109 tumor cells = test: Second, more extensive M109 study: free or liposomal adriamycin with free IL-2, SSL-IL-2 or MLV-IL-2; settings: 5×10^5 M109 cells i.p.; ADR or DOXIL 8 mg/kg i.p. day 7; IL-2 50,000 CU/mouse i.v. days 10, 13, 16; observed up to 120 days
Description: In a second, more extensive study, nine groups of BALB/c mice were injected intraperitoneally with 5×10^5 M109 tumor cells. Free adriamycin or DOXIL® (8 mg/kg) were administered intraperitoneally 7 days later, followed 3 days later by intravenous cytokine treatment. The cytokine, given once daily (50,000 CU/mouse) on days 10, 13 and 16, consisted of free IL-2, IL-2 in Formulation A (Stealth® PEGylated SUV), or IL-2 in Formulation B (9:1 molar DMPC/DMPG MLV).
Each group, consisting of 8 mice, and an untreated control group of 11 mice, were inspected for survival up to 120 days after tumor inoculation.

[3] = test system: C26 colon carcinoma cells; test: Subcutaneous colon carcinoma model (footpad), IL-2 in MLV; settings: 10^5 C26 cells in footpad, 8 mg/kg free or liposomal adriamycin i.v. day 7, IL-2 i.p.
Description: B3. Subcutaneous colon carcinoma model: IL-2 in MLV. In this test, 7 groups of BALB/c mice were injected in the footpad with 10^5 C26 colon carcinoma cells.

COc1cccc2c1C(=O)c1c(O)c3c(c(O)c1C2=O)C[C@@](O)(C(=O)CO)C[C@@H]3O[C@H]1C[C@H](N)[C@H](O)[C@H](C)O1 [ADR, adriamycin (doxorubicin)]
MEDIAN SURVIVAL ([1]; observed up to 100 days): 42 days
NUMBER OF SURVIVING MICE/TOTAL ([1]; survival up to 100 days): 0/8
MEDIAN SURVIVAL ([2]; observed up to 100 days): 56 days
NUMBER OF SURVIVING MICE/TOTAL ([2]; survival up to 100 days): 2/8
MEDIAN SURVIVAL (M109 tumor cells): 100 days
NUMBER OF TUMOR FREE MICE/TOTAL (M109 tumor cells): 4/8
NUMBER OF TUMOR FREE MICE, DAY 30 ([3]; day 30): 0/7
NUMBER OF TUMOR FREE MICE, DAY 65 ([3]; day 65): 0/7
